# Biological target: Procathepsin L (Homo sapiens, UniProt P07711)
# Assay: Inhibition of cathepsin L
# Chain of Procathepsin L (P07711 whole entry): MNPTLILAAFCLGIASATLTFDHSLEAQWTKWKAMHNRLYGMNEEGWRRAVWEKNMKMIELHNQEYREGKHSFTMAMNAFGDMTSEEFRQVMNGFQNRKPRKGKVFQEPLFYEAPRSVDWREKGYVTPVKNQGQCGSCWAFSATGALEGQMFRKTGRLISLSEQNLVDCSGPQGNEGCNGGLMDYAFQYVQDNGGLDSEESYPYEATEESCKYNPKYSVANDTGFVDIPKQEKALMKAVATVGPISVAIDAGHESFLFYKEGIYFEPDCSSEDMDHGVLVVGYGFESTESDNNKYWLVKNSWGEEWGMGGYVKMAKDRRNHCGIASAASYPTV
row,Structure (SMILES),IC50
1,"Cc1ccc(NC(=O)CSc2nnc(C(N)Cc3c[nH]c4ccccc34)o2)c(C)c1 (single isomer, unassigned)",160 nM
2,CCN(CC)C(=O)CSc1nnc([C@@H](N)Cc2c[nH]c3ccccc23)o1,510 nM
3,"CCc1ccccc1NC(=O)CSc1nnc(C(N)Cc2c[nH]c3ccccc23)o1 (single isomer, unassigned)",130 nM
4,CN(C)C(=O)CSc1nnc([C@@H](N)Cc2c[nH]c3ccccc23)o1,170 nM
5,"Cc1cccc(NC(=O)CSc2nnc(C(N)Cc3c[nH]c4ccccc34)o2)c1C (single isomer, unassigned)",300 nM
6,CCc1ccccc1NC(=O)CSC(=O)NNC(=O)[C@@H](N)Cc1c[nH]c2ccccc12,133 nM
